One block for each compound: values may come before it.
Legend:
[1] = target: T1, LXRβ (NR1H2) (Homo sapiens, UniProt P55055); test: R-SAT single receptor format, LXRβ; format: cell-based; conditions: NIH-3T3 cells transfected with LXRβ
T1 construct: expressed in transfected cells; host or cells: NIH-3T3
T1 sequence (P55055 1-460): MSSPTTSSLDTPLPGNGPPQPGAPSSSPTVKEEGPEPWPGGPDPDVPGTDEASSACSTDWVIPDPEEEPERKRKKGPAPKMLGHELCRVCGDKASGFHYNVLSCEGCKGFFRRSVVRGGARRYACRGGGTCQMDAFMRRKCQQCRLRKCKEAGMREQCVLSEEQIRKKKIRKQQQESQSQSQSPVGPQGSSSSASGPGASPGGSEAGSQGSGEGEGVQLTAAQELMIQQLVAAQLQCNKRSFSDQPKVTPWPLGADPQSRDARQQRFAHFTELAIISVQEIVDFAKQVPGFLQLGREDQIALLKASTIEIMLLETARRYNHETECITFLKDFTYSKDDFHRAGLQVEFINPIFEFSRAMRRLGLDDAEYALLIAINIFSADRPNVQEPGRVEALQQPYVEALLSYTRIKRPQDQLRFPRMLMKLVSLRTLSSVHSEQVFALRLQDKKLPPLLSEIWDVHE
From the text: (§1) Curves were generated using XLFit software ([…]).

[2] = target: T2, LXRα (NR1H3) (Homo sapiens, UniProt Q13133); test: R-SAT single receptor format, LXRα; format: cell-based; conditions: NIH-3T3 cells transfected with LXRα
T2 construct: expressed in transfected cells; host or cells: NIH-3T3
T2 sequence (Q13133 1-447): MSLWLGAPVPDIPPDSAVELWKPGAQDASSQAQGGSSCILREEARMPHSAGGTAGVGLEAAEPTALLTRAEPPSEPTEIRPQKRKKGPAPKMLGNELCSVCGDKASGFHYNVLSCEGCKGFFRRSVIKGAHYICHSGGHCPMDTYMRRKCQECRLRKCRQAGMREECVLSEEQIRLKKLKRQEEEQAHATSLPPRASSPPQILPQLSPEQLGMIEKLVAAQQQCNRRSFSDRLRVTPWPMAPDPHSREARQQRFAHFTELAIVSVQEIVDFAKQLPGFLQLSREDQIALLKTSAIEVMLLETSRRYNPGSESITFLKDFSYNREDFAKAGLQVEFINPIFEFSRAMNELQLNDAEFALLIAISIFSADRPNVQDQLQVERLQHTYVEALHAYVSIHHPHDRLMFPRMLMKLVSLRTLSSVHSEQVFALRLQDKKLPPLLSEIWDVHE
From the text: as §1

[3] = target: T3, PPARδ (NR1C2) (Homo sapiens, UniProt Q03181); test: R-SAT single receptor format, PPARδ; format: cell-based; conditions: NIH-3T3 cells transfected with PPARδ
T3 construct: expressed in transfected cells; host or cells: NIH-3T3
T3 sequence (Q03181 1-441): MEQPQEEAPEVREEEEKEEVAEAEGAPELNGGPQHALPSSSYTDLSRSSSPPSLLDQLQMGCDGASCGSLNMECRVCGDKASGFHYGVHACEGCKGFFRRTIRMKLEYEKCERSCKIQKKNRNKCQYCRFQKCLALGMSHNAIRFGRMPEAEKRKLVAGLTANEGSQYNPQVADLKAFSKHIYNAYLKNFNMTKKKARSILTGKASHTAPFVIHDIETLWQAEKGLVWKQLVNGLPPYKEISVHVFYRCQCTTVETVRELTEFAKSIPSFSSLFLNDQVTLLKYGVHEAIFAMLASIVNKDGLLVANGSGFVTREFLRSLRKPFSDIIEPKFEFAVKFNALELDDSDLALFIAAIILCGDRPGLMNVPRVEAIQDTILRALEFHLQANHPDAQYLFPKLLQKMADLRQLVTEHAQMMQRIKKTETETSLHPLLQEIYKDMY
From the text: as §1

[4] = target: T4, CARα and RXR nuclear receptors (heterodimer) (Homo sapiens, UniProt Q14994); test: R-SAT inverse agonism, CARα/RXR; format: cell-based; conditions: cells transfected with CARα and RXR, β-galactosidase activity, FIG. 4A
T4 construct: expressed in transfected cells
T4 sequence (Q14994 1-348 isoform Q14994-2): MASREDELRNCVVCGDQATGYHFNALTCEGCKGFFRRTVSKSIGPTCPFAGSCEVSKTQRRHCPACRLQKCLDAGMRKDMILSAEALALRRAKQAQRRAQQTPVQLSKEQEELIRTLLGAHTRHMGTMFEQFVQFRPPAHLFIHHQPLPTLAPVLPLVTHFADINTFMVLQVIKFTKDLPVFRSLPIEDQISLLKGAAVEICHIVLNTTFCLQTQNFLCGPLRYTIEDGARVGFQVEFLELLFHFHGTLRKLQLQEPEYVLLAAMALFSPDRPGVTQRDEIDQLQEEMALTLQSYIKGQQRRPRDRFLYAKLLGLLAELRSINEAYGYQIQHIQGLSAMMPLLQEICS
T4 sequence (P48443 1-463 partner): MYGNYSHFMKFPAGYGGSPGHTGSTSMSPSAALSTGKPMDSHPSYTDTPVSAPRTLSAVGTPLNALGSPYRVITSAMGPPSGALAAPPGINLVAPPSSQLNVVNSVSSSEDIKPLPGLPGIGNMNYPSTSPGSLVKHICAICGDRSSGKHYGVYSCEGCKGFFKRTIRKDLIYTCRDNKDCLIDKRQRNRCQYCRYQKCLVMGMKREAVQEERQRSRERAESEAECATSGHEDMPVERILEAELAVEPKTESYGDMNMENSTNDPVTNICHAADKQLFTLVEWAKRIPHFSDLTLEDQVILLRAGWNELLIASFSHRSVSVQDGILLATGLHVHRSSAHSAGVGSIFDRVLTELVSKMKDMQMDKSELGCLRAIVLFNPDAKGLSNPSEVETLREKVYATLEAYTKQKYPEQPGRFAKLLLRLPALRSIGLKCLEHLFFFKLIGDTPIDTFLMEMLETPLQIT
From the text: as §1

[5] = target: T5, PXR/RXR heterodimer (Homo sapiens, UniProt O75469); conditions: 5 days
T5 sequence (O75469 1-434): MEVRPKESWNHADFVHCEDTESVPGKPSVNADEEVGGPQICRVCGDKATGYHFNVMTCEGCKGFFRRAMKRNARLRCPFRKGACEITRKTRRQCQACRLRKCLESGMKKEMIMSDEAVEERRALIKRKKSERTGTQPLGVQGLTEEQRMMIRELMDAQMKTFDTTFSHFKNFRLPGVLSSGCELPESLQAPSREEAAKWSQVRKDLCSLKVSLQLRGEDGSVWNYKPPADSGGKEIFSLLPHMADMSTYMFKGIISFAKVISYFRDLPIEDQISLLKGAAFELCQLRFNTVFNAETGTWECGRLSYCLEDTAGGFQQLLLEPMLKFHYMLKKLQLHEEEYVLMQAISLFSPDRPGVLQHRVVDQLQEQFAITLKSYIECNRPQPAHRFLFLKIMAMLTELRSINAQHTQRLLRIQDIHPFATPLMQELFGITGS
T5 sequence (P48443 1-463 partner): T4 sequence (P48443 1-463 partner)
Protocol: On day one, cells were trypsinized, centrifuged and plated at 8,000 cells/well in a 96-well plate in 100 μl/well of Dubelcco's Modified Eagle's Medium (DMEM), 10% calf serum. On day two, cells were transfected using the transfection reagent Superfect® (Qiagen, Inc.) as recommended by the manufacturer. Various doses of the nuclear receptor plasmid DNA were transfected. DNA mixtures included 0.1 to 10 ng/well of receptors DNA, 20 to 30 ng/well of β-galactosidase plasmid DNA (pSV β-galactosidase, Promega) and 15 μl of Superfect®. On day three, the media was replaced by DMEM with 2% Cyto-SF3 (Kemp Biotechnologies, Inc.) containing variable amounts of the compounds being tested. […] All data were obtained by measuring the change in absorbance at 420 nm using an automated plate reader. EC50 values were calculated using the equation r=A+B(x/(c+c)), where A=minimum response, B=maximum response minus maximum response, c=EC50, r=response, and x=concentration of ligand. Curves were generated using XLFit software (Microsoft).
The coactivators GRIP1 (Glucocorticoid Receptor Interacting Protein 1) (GenBank U39060) and SRC-1 (Steroid Receptor Coactivator 1) (GenBank U90661) were used in this assay. In summary, plasmid DNA encoding the coactivator(s) were transfected along with the aforementioned transfection mixture (containing the PXR, RXR, and β-Gal plasmid DNAs).

EC50 [1]: 3000 to 5000 nM | EC50 [2]: 3000 to 5000 nM
Structure (SMILES): CC(C)CC[C@@H](O)[C@@H](C)[C@H]1CC[C@H]2[C@@H]3CC=C4C[C@@H](O)CC[C@]4(C)[C@H]3CC[C@]12C [22(R)OH-Cholesterol]

EC50 [3]: 200 to 500 nM
Structure (SMILES): CCCCC[C@H](O)/C=C/[C@@H]1[C@H]2C/C(=C/CCCC(=O)O)C[C@H]2C[C@H]1O [carbaprostacyclin]

Structure (SMILES): C[C@]12CC[C@@H](O)C[C@@H]1CC[C@@H]1[C@@H]2CC[C@]2(C)C=CC[C@@H]12 [Androstenol]
inverse agonist activity [4]: inverse agonist activity

efficacy of pharmacological response [5]: 5-10%
Structure (SMILES): CO[C@H]1/C=C/O[C@@]2(C)Oc3c(C)c(O)c4c(O)c(c(/C=N/N5CCN(C)CC5)c(O)c4c3C2=O)NC(=O)/C(C)=C\C=C\[C@H](C)[C@H](O)[C@@H](C)[C@@H](O)[C@@H](C)[C@H](OC(C)=O)[C@@H]1C [rifampicin]

— patent publication US20060134670A1, “Enabling tools to identify ligands for hormone nuclear receptors” (priority 2004, published 2006)
